For series [1] the following is noted: pigs, previous study; cited from earlier work.
For series [2] the following is noted: for concentration at 6 h: pig, iv, 200 µg/kg BW.
For series [3] the following is noted: one human decedent of five postmortem cases; cited from earlier work.
The conditions of series [4]: cited from earlier work.
For series [5] the following is noted: human fatal case, cited from earlier work.
For series [6] the following is noted: mice (n = 5), exposure to Magic Gold smoke (3.6% JWH-018, 5.7% JWH-073); cited from earlier work.
The mark [7] stands for this setting: pigs, 6 h after single i.v. 200 µg/kg BW.

The text below walks through data of article PMC5771047 (Current Neuropharmacology, 2017).

Where “and” joins values, the source holds several entries; their conditions need not be identical. Equal values may be shown once. Read-outs that look alike come from different tables or passages of the source.

`CCCCCc1cc(O)c2c(c1)OC(C)(C)[C@@H]1CCC(C)=C[C@@H]21` [THC, ∆9-tetrahydrocannabinol]: the “Serum concentration six hours after administration” value in series [1] is reported as 7.1 ± 4.3 ng/mL. For the same compound, the concentration at 6 h in series [2] (bile) was 77 ± 83 ng/g; in series [2] (brain (cerebellum)), 24 ± 5.8 ng/g; in series [2] (brain (cerebrum)), 12 ± 3.8 ng/g; in series [2] (heart), 17 ± 7 ng/g; in series [2] (kidney (left)), 24 ± 11 ng/g; in series [2] (kidney (right)), 21 ± 16 ng/g. For the same compound, the concentration at 6 h in series [2] (liver) came to 18 ± 3.7 ng/g; in series [2] (lung (left)), 61 ± 50 ng/g; in series [2] (lung (right)), 69 ± 37 ng/g; in series [2] (psoas muscle) it was 9.1 ± 3.3 ng/g; in series [2] (skeletal muscle) it was 16 ± 0.94 ng/g; in series [2] (spleen), 7.1 ± 3.8 ng/g. In series [2] (setting [7]), the Detection in dura result is listed as “not detected”. Further, the “Detection in vitreous humor (qualitative analysis)” value in series [2] (setting [7]) was “not detected”. Also, the “Peak concentration in muscle tissue” value in series [3] is 40 ng/g. Also, the LogP in series [4] is recorded as 6.7.
On to `CCCCCn1cc(C(=O)c2ccc(CC)c3ccccc23)c2ccccc21` [JWH-210, 4-ethylnaphthalen-1-yl-(1-pentylindol-3-yl)methanone], for which the “Serum concentration six hours after administration” value in series [1] is 3.1 ± 1.1 ng/mL. Besides, the concentration at 6 h was found to be 26 ± 19 ng/g in series [2] (bile); 32 ± 9 ng/g in series [2] (brain (cerebellum)); 20 ± 6.8 ng/g in series [2] (brain (cerebrum)); 1.7 ± 0.8 ng/g in series [2] (dura); 19 ± 6.1 ng/g in series [2] (heart); 43 ± 34 ng/g in series [2] (kidney (left)). The concentration at 6 h in series [2] (kidney (right)) was determined as 53 ± 45 ng/g; in series [2] (liver), 14 ± 6.2 ng/g; in series [2] (lung (left)) it was 8.6 ± 4.4 ng/g; in series [2] (lung (right)), 6.9 ± 2.1 ng/g; in series [2] (psoas muscle), 20 ± 9.5 ng/g; in series [2] (skeletal muscle), 21 ± 8 ng/g. Also, the concentration at 6 h in series [2] (spleen) amounted to 11 ± 6.8 ng/g. Also, the “Detection in vitreous humor (qualitative analysis)” value in series [2] (setting [7]) is given as “positive results”.
Turning to `CCc1ccc(C(=O)c2cn(CCCCC(=O)O)c3ccccc23)c2ccccc12` [JWH-210-COOH, JWH-210-pentanoic acid], the “Concentration in kidney specimens, individual cases” value in series [2] (pigs, 6 h after i.v. 200 µg/kg BW JWH-210, detectable in two cases) was 0.5 ng/g and 1 ng/g.
hydroxypentyl-JWH-210 [HO-JWH-210]: in series [2] (pigs, 6 h after i.v. 200 µg/kg BW JWH-210, present in one pig only), the “Concentration in abdominal adipose tissue, individual pig” value was 6 ng/g. For the same compound, in series [2] (pigs, 6 h after i.v. 200 µg/kg BW JWH-210, present in two pigs only), the “Concentration in perirenal adipose tissue, individual pigs” value is 4.5 ng/g and 9 ng/g.
In the case of `Cc1ccc(C(=O)c2cn(CCCCCF)c3ccccc23)c2ccccc12` [MAM-2201], the “Concentration in adipose tissue” value in series [5] (postmortem interval about four days) was 1,535 ng/g. In series [5] (postmortem), the Concentration in brain is listed as 4.3 ng/g, the “Concentration in heart blood” value is recorded as 12.4 ng/mL, the Concentration in kidney is 11.2 ng/g and the Concentration in liver was 18.1 ng/g.
For the compound `COc1ccc(C(=O)c2cn(CCCCC(=O)O)c3ccccc23)cc1` [RCS-4-COOH, RCS-4-pentanoic acid], the “Concentration in bile fluid, individual pigs” value in series [2] (pigs, 6 h after i.v. 200 µg/kg BW RCS-4, two pigs) was 47 ng/g and 154 ng/g.
Consider hydroxypentyl-RCS-4 [HO-RCS-4], for which the “Concentration in skeletal muscle, individual pigs” value in series [2] (pigs, 6 h after i.v. 200 µg/kg BW RCS-4, only in two pigs) was 5.7 ng/g and 1.6 ng/g. Moreover, the LogP in series [4] is reported as 4.08.
Consider `CCCCCn1cc(C(=O)c2cccc3ccccc23)c2ccccc21` [JWH-018, naphthalen-1-yl-(1-pentylindol-3-yl)methanone], for which the “Concentration in brain specimens twenty hours post-exposure” value in series [6] is 19 ± 9 ng/g.

A word on the LogP: it is the decadic logarithm of the partition coefficient of the neutral form, usually between octanol and water.
